Data as given in publication PMC10687071 (The Journal of Biological Chemistry, 2023).

Biological target: T1, V83G mutant EAG1 channels (Mus musculus, UniProt Q60603, V83G)
T1 construct: expressed in transfected cells; host or cells: Xenopus laevis oocytes injected with cRNA
T1 sequence (Q60603 1-989 V83G): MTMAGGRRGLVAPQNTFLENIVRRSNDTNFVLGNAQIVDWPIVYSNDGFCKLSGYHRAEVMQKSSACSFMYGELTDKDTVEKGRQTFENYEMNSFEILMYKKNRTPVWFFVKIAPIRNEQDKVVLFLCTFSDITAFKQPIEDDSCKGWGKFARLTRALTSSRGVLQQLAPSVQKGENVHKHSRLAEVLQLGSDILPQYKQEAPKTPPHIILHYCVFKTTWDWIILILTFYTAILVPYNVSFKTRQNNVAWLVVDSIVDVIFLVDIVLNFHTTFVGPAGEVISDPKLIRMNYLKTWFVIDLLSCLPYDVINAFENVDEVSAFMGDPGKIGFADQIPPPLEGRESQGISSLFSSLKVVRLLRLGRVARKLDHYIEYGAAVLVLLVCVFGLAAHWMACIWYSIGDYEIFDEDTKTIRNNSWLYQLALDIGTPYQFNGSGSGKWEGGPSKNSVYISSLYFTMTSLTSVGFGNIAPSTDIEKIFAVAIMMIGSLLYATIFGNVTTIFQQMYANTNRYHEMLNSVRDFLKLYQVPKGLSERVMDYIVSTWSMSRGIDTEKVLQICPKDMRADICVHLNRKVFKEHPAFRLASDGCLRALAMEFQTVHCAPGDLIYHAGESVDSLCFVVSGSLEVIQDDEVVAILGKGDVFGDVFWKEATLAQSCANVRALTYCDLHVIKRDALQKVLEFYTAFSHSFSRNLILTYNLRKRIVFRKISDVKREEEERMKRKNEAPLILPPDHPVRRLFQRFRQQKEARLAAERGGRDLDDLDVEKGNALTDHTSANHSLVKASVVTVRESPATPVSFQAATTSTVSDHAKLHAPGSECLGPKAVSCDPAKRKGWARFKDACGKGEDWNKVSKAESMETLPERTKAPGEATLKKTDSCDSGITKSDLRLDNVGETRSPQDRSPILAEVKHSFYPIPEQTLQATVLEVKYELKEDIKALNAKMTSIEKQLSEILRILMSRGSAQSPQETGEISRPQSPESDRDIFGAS
Assay: TEVC recording, imipramine inhibition, V83G mutant
Type: cell-based
Conditions: V83G mutant EAG1 channel, +50 mV
From the text: The cDNA encoding wild-type (WT) mouse EAG1 channels in pGH19 vector was kindly provided by G. Robertson (University of Wisconsin-Madison, Madison, WI). The mutant ΔPAS EAG1 channel in pGH19 with the deletion of the PAS domain residues 2 to 130 was generated by Bio Basic Inc and verified by DNA sequencing (Genewiz). Mutant EAG1 channels with single amino acid substitutions were generated by Genewiz and verified by DNA sequencing. cRNA was transcribed using the T7 mMessage mMachine kit (Thermo Fisher Scientific). Defolliculated Xenopus laevis oocytes were purchased from Ecocyte Bioscience or Xenopus1 and injected with the cRNA using a Nanoinject II oocyte injector (Drummond).
For EAG1 current recordings, oocytes were placed into a handmade chamber containing a bath solution for the current recording. The currents were recorded using a TEVC technique with OC-725C amplifier (Warner Instruments) and pClamp11 software (Molecular Devices). The signals were digitized using Digidata 1550 (Molecular Devices). Patch pipettes were pulled from borosilicate glass and had resistances of 0.7 to 1.5 MΩ. The recording (bath) solution contained 96 mM NaCl, 4 mM KCl, 0.1 mM CaCl2, 1.8 mM MgCl2, and 5 mM HEPES, pH 7.5. The pipette solution contained 3 M KCl. […]

CN(C)CCCN1c2ccccc2CCc2ccccc21 [imipramine]
IC50: 44.3 ± 2.6 µM
